Assay results published in paper PMC7265341, “Quantifying CDK inhibitor selectivity in live cells” (Nature Communications, 2020).
Read-outs that look alike come from different tables or passages of the source.

Tests used:
[1] = molecular target: CDK1/Cyclin E1 (Homo sapiens, UniProt P06493); assay: NanoBRET live-cell target engagement, CDK1-NanoLuc/Cyclin E1 in HEK-293; type: binding
[2] = molecular target: CDK2/Cyclin E1 (Homo sapiens, UniProt P24941); assay: NanoBRET live-cell target engagement, CDK2-NanoLuc/Cyclin E1 in HEK-293; type: binding
[3] = molecular target: CDK3/Cyclin E1 (Homo sapiens, UniProt Q00526); assay: NanoBRET live-cell target engagement, CDK3-NanoLuc/Cyclin E1 in HEK-293; type: binding; conditions: CDK3/E1; for IC50: read-out: IC50
Chain of CDK3/Cyclin E1 (Q00526 whole entry): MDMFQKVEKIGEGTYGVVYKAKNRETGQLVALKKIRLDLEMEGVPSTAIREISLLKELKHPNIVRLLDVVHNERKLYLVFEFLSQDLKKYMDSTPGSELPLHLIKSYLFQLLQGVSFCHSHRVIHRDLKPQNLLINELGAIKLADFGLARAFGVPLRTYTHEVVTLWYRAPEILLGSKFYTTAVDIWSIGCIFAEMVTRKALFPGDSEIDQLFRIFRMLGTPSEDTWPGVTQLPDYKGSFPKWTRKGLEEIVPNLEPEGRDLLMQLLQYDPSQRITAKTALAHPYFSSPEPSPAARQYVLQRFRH
Chain of CDK3/Cyclin E1 (P24864 whole entry partner): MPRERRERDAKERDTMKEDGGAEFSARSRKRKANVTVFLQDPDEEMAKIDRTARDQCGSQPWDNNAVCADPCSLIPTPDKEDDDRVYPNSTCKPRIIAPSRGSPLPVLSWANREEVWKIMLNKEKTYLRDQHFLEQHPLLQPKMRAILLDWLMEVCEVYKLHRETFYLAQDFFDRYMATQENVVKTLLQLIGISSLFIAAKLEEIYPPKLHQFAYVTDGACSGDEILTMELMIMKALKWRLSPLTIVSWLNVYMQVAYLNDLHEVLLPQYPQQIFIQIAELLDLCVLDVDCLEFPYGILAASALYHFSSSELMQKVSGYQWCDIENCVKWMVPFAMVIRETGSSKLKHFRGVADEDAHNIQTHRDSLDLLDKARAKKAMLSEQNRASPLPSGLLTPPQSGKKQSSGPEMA

[4] = molecular target: CDK4/Cyclin D1 (Homo sapiens, UniProt P11802); assay: NanoBRET live-cell target engagement, NanoLuc-CDK4/Cyclin D1 in HEK-293; type: binding; conditions: CDK4/D1; for IC50: read-out: IC50
[5] = molecular target: CDK5/CDK5R1 (Homo sapiens, UniProt Q00535); assay: NanoBRET live-cell target engagement, CDK5-NanoLuc/CDK5R1 in HEK-293; type: binding
Chain of CDK5/CDK5R1 (Q00535 whole entry): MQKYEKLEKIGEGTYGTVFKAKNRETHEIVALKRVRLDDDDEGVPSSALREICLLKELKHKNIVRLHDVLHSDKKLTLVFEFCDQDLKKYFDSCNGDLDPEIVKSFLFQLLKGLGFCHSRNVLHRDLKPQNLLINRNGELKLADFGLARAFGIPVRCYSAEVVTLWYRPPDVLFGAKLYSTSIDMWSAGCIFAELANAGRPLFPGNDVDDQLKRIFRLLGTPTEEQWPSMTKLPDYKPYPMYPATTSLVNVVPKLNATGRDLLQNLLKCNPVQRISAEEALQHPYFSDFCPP
Chain of CDK5/CDK5R1 (Q15078 whole entry partner): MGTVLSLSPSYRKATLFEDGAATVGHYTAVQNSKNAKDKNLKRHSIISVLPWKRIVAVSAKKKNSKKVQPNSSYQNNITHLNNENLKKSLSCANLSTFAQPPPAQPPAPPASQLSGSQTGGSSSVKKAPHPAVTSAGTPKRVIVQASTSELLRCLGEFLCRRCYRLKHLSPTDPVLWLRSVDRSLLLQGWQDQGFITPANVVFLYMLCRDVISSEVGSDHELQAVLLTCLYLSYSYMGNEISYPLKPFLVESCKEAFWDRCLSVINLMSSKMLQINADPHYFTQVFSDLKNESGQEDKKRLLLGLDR

[6] = molecular target: CDK6/Cyclin D1 (Homo sapiens, UniProt Q00534); assay: NanoBRET live-cell target engagement, NanoLuc-CDK6/Cyclin D1 in HEK-293; type: binding; conditions: CDK6/D1; for IC50: read-out: IC50
Chain of CDK6/Cyclin D1 (Q00534 whole entry): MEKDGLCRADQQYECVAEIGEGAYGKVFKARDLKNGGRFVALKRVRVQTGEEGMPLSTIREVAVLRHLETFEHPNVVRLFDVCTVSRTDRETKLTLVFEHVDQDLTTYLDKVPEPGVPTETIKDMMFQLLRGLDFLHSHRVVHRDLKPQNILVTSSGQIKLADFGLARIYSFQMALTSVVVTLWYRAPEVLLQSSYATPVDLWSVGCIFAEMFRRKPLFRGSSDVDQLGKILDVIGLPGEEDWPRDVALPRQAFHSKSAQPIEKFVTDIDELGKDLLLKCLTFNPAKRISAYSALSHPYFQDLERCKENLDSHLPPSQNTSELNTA
Chain of CDK6/Cyclin D1 (P24385 whole entry partner): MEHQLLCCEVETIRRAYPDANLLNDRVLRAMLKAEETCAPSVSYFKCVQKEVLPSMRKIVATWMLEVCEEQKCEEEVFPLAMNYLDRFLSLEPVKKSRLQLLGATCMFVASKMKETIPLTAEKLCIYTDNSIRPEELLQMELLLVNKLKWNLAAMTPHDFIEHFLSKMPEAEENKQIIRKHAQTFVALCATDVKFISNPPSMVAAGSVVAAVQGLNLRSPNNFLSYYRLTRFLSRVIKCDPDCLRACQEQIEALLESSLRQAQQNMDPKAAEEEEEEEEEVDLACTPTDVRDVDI

[7] = molecular target: CDK7 (Homo sapiens, UniProt P50613); assay: NanoBRET live-cell target engagement, NanoLuc-CDK7 in HEK-293; type: binding; conditions: CDK7; for IC50: read-out: IC50
[8] = molecular target: CDK8/Cyclin C (Homo sapiens, UniProt P49336); assay: NanoBRET live-cell target engagement, NanoLuc-CDK8/Cyclin C in HEK-293; type: binding; conditions: CDK8/C
[9] = molecular target: CDK9/Cyclin K (Homo sapiens, UniProt P50750); assay: NanoBRET live-cell target engagement, NanoLuc-CDK9/Cyclin K in HEK-293; type: binding; conditions: CDK9/K
Chain of CDK9/Cyclin K (P50750 whole entry): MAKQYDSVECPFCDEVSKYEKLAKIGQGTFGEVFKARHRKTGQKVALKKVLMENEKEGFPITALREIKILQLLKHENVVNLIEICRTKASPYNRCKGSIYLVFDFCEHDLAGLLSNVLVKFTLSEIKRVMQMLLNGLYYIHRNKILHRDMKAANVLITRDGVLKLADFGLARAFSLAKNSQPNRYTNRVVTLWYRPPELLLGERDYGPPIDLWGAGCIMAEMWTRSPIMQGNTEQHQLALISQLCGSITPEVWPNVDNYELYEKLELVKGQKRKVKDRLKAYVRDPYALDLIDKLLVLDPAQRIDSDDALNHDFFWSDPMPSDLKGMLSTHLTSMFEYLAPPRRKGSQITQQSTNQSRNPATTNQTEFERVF
Chain of CDK9/Cyclin K (O75909 whole entry partner): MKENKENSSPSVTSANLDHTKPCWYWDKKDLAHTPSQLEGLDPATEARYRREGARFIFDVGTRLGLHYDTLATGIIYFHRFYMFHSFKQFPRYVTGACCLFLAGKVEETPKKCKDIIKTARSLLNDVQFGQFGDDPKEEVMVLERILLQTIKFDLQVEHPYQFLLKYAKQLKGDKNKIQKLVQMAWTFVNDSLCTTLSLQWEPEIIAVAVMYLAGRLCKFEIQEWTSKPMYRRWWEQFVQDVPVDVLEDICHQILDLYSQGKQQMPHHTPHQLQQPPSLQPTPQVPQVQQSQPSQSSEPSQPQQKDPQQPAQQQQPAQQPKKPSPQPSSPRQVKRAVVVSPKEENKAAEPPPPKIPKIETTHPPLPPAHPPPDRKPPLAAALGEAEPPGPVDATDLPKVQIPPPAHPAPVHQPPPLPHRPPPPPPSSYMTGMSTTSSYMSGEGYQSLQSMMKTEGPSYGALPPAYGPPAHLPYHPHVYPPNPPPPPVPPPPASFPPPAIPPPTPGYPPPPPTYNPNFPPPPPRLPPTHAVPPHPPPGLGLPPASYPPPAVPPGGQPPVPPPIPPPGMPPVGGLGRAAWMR

[10] = molecular target: CDK11B/Cyclin L2 (Homo sapiens, UniProt P21127); assay: NanoBRET live-cell target engagement, CDK11B-NanoLuc/Cyclin L2 in HEK-293; type: binding; conditions: CDK11b/L2; for IC50: read-out: IC50
[11] = molecular target: CDK12/Cyclin K (Homo sapiens, UniProt Q9NYV4); assay: NanoBRET live-cell target engagement, CDK12-NanoLuc/Cyclin K in HEK-293; type: binding; conditions: CDK12/K
[12] = molecular target: CDK13/Cyclin K (Homo sapiens, UniProt Q14004); assay: NanoBRET live-cell target engagement, CDK13-NanoLuc/Cyclin K in HEK-293; type: binding; conditions: CDK13/K
[13] = molecular target: CDK14/Cyclin Y (Homo sapiens, UniProt O94921); assay: NanoBRET live-cell target engagement, CDK14-NanoLuc/Cyclin Y in HEK-293; type: binding; conditions: CDK14/Y
[14] = molecular target: CDK15/Cyclin Y (Homo sapiens, UniProt Q96Q40); assay: NanoBRET live-cell target engagement, NanoLuc-CDK15/Cyclin Y in HEK-293; type: binding
Chain of CDK15/Cyclin Y (Q96Q40 whole entry): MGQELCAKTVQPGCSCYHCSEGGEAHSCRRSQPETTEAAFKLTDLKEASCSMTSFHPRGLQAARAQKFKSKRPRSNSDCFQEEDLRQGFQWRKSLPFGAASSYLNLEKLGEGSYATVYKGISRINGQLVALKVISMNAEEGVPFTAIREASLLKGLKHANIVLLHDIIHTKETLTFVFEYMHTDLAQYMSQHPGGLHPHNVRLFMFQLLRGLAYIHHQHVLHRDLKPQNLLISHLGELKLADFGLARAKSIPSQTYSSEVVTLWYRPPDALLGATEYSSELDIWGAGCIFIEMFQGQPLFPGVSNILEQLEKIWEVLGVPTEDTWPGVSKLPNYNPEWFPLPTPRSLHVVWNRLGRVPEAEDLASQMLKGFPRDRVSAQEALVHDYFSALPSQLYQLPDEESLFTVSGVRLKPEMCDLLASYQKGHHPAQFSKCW
Chain of CDK15/Cyclin Y (Q8ND76 whole entry partner): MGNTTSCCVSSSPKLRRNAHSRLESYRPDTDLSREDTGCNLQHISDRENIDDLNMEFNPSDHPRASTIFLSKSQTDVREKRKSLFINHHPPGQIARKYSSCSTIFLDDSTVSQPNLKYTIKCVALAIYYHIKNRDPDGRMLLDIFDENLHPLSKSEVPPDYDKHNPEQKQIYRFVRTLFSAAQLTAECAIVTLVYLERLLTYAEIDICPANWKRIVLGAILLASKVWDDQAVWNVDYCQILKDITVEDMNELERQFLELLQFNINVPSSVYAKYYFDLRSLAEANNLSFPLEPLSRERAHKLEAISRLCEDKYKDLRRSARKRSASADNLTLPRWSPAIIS

[15] = molecular target: CDK16/Cyclin Y (Homo sapiens, UniProt Q00536); assay: NanoBRET live-cell target engagement, CDK16-NanoLuc/Cyclin Y in HEK-293; type: binding; conditions: CDK16/Y; for IC50: read-out: IC50
[16] = molecular target: CDK17/Cyclin Y (Homo sapiens, UniProt Q00537); assay: NanoBRET live-cell target engagement, CDK17-NanoLuc/Cyclin Y in HEK-293; type: binding; conditions: CDK17/Y; for IC50: read-out: IC50
[17] = molecular target: CDK18/Cyclin Y (Homo sapiens, UniProt Q07002); assay: NanoBRET live-cell target engagement, CDK18-NanoLuc/Cyclin Y in HEK-293; type: binding; conditions: CDK18/Y; for IC50: read-out: IC50
[18] = molecular target: CDK20/Cyclin H (Homo sapiens, UniProt Q8IZL9); assay: NanoBRET live-cell target engagement, NanoLuc-CDK20/Cyclin H in HEK-293; type: binding; conditions: CDK20/H
[19] = molecular target: CDK19/Cyclin C (Homo sapiens, UniProt Q9BWU1); assay: NanoBRET live-cell target engagement, NanoLuc-CDK19/Cyclin C in HEK-293; conditions: CDK19/C
Chain of CDK19/Cyclin C (Q9BWU1 whole entry): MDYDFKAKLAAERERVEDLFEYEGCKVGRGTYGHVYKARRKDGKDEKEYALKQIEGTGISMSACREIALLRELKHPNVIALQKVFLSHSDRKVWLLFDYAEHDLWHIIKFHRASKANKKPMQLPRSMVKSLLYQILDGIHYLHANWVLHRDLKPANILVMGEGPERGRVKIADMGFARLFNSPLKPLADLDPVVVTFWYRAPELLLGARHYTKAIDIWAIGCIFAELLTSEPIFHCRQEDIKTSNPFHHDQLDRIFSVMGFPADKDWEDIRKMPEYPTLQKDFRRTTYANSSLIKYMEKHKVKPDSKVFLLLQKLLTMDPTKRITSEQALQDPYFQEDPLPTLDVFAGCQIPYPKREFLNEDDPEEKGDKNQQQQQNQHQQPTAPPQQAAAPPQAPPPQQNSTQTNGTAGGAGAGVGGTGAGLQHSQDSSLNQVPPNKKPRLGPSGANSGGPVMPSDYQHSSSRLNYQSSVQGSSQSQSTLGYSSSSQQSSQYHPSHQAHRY
Chain of CDK19/Cyclin C (P24863 whole entry partner): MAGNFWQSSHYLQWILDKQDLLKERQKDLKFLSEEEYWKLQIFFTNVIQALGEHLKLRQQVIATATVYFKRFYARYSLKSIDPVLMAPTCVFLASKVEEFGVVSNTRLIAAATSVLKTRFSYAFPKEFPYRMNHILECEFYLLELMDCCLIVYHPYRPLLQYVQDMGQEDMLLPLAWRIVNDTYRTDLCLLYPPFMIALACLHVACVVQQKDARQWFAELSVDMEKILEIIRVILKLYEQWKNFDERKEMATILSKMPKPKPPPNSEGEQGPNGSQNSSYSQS

[20] = molecular target: CDK10/Cyclin L2 (Homo sapiens, UniProt Q15131); assay: NanoBRET live-cell target engagement, CDK10-NanoLuc/Cyclin L2 in HEK-293; conditions: CDK10/L2
Chain of CDK10/Cyclin L2 (Q15131 whole entry): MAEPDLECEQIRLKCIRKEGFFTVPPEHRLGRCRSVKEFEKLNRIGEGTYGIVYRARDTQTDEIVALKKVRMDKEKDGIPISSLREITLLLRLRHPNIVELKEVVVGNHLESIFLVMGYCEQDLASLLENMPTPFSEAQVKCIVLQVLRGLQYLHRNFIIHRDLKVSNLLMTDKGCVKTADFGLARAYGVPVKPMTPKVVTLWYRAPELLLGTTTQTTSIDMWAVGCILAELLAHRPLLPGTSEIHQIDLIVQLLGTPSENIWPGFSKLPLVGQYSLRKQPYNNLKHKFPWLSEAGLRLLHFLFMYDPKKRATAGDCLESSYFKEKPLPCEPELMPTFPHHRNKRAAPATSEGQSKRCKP

SMILES: CC(C)c1cnn2c(NCc3ccccc3-n3cccn3)nc(OC3CCCNC3)nc12 (centres unmarked) [LDC4297]
- Inhibition at 10µM (%) ([1]; CDK1/E1, average): 72.7%
- IC50 ([1]; CDK1/E1, average (± SEM where n=3), read-out: IC50): 70 ± 20 nM
- Inhibition at 10µM (%) ([1]; CDK1/E1, experiment 1): 70.9%
- IC50 ([1]; CDK1/E1, experiment 1, read-out: IC50): 70 nM
- Inhibition at 10µM (%) ([1]; CDK1/E1, experiment 2): 74.5%
- IC50 ([1]; CDK1/E1, experiment 2, read-out: IC50): 110 nM
- IC50 ([1]; CDK1/E1, experiment 3, read-out: IC50): 43 nM
- IC50 ([1]; live HEK-293, 2 h, mean ± S.E.M. (n=3) or mean (n=2), read-out: IC50 for CDK/cyclin complexes, CDK1/E1): 70 ± 20 nM
- Inhibition at 10µM (%) ([2]; CDK2/E1, average): 88.3%
- IC50 ([2]; CDK2/E1, average (± SEM where n=3), read-out: IC50): 85 ± 2 nM
- Inhibition at 10µM (%) ([2]; CDK2/E1, experiment 1): 85.3%
- IC50 ([2]; CDK2/E1, experiment 1, read-out: IC50): 81 nM
- Inhibition at 10µM (%) ([2]; CDK2/E1, experiment 2): 91.3%
- IC50 ([2]; CDK2/E1, experiment 2, read-out: IC50): 86 nM
- IC50 ([2]; CDK2/E1, experiment 3, read-out: IC50): 85 nM
- IC50 ([2]; live HEK-293, 2 h, mean ± S.E.M. (n=3) or mean (n=2), read-out: IC50 for CDK/cyclin complexes, CDK2/E1): 85 ± 2 nM
- Inhibition at 10µM (%) ([3]; average): 89.3%
- IC50 ([3]; average (± SEM where n=3)): 240 ± 70 nM
- Inhibition at 10µM (%) ([3]; experiment 1): 89.3%
- IC50 ([3]; experiment 1): 121 nM
- Inhibition at 10µM (%) ([3]; experiment 2): 89.4%
- IC50 ([3]; experiment 2): 370 nM
- IC50 ([3]; experiment 3): 234 nM
- Inhibition at 10µM (%) ([4]; average): 58.1%
- IC50 ([4]; average (± SEM where n=3)): 80 ± 30 nM
- Inhibition at 10µM (%) ([4]; experiment 1): 52.3%
- IC50 ([4]; experiment 1): 20 nM
- Inhibition at 10µM (%) ([4]; experiment 2): 64.0%
- IC50 ([4]; experiment 2): 100 nM
- IC50 ([4]; experiment 3): 104 nM
- Inhibition at 10µM (%) ([5]; CDK5/CDK5R1, average): 89.8%
- IC50 ([5]; CDK5/CDK5R1, average (± SEM where n=3), read-out: IC50): 280 ± 50 nM
- Inhibition at 10µM (%) ([5]; CDK5/CDK5R1, experiment 1): 86.3%
- IC50 ([5]; CDK5/CDK5R1, experiment 1, read-out: IC50): 204 nM
- Inhibition at 10µM (%) ([5]; CDK5/CDK5R1, experiment 2): 93.4%
- IC50 ([5]; CDK5/CDK5R1, experiment 2, read-out: IC50): 280 nM
- IC50 ([5]; CDK5/CDK5R1, experiment 3, read-out: IC50): 360 nM
- IC50 ([5]; live HEK-293, 2 h, mean ± S.E.M. (n=3) or mean (n=2), read-out: IC50 for CDK/cyclin complexes, CDK5/R1): 280 ± 50 nM
- Inhibition at 10µM (%) ([6]; average): 27.5%
- IC50 ([6]; average (± SEM where n=3)): 110 ± 80 nM
- Inhibition at 10µM (%) ([6]; experiment 1): 31.4%
- IC50 ([6]; experiment 1): 9 nM
- Inhibition at 10µM (%) ([6]; experiment 2): 23.6%
- IC50 ([6]; experiment 2): 270 nM
- IC50 ([6]; experiment 3): 50 nM
- Inhibition at 10µM (%) ([7]; average): 93.9%
- IC50 ([7]; average (± SEM where n=3)): 22 ± 6 nM
- Inhibition at 10µM (%) ([7]; experiment 1): 93.7%
- IC50 ([7]; experiment 1): 17 nM
- Inhibition at 10µM (%) ([7]; experiment 2): 94.2%
- IC50 ([7]; experiment 2): 15 nM
- IC50 ([7]; experiment 3): 33 nM
- Inhibition at 10µM (%) ([8]; average): 3.8%
- Inhibition at 10µM (%) ([8]; experiment 1): 14.8%
- Inhibition at 10µM (%) ([8]; experiment 2): -7.1%
- Inhibition at 10µM (%) ([9]; average): 42.4%
- Inhibition at 10µM (%) ([9]; experiment 1): 42.8%
- Inhibition at 10µM (%) ([9]; experiment 2): 42.0%
- Inhibition at 10µM (%) ([10]; average): 53.6%
- IC50 ([10]; average (± SEM where n=3)): 760 ± 60 nM
- Inhibition at 10µM (%) ([10]; experiment 1): 54.6%
- IC50 ([10]; experiment 1): 876 nM
- Inhibition at 10µM (%) ([10]; experiment 2): 52.6%
- IC50 ([10]; experiment 2): 685 nM
- IC50 ([10]; experiment 3): 732 nM
- Inhibition at 10µM (%) ([11]; average): 18.0%
- Inhibition at 10µM (%) ([11]; experiment 1): 25.5%
- Inhibition at 10µM (%) ([11]; experiment 2): 10.4%
- Inhibition at 10µM (%) ([12]; average): 24.9%
- Inhibition at 10µM (%) ([12]; experiment 1): 20.0%
- Inhibition at 10µM (%) ([12]; experiment 2): 29.8%
- Inhibition at 10µM (%) ([13]; average): 89.0%
- Inhibition at 10µM (%) ([13]; experiment 1): 88.6%
- Inhibition at 10µM (%) ([13]; experiment 2): 89.3%
- Inhibition at 10µM (%) ([14]; CDK15/Y, average): 95.3%
- IC50 ([14]; CDK15/Y, average (± SEM where n=3), read-out: IC50): 220 ± 20 nM
- Inhibition at 10µM (%) ([14]; CDK15/Y, experiment 1): 95.2%
- IC50 ([14]; CDK15/Y, experiment 1, read-out: IC50): 220 nM
- Inhibition at 10µM (%) ([14]; CDK15/Y, experiment 2): 95.3%
- IC50 ([14]; CDK15/Y, experiment 2, read-out: IC50): 260 nM
- IC50 ([14]; CDK15/Y, experiment 3, read-out: IC50): 193 nM
- IC50 ([14]; live HEK-293, 2 h, mean ± S.E.M. (n=3) or mean (n=2), read-out: IC50 for CDK/cyclin complexes, CDK15/Y): 220 ± 20 nM
- IC50 ([15]; average (± SEM where n=3)): 400 ± 30 nM
- Inhibition at 10µM (%) ([15]; experiment 1): 87.3%
- IC50 ([15]; experiment 1): 332 nM
- Inhibition at 10µM (%) ([15]; experiment 2): 88.6%
- IC50 ([15]; experiment 2): 430 nM
- IC50 ([15]; experiment 3): 428 nM
- Inhibition at 10µM (%) ([16]; average): 90.8%
- IC50 ([16]; average (± SEM where n=3)): 200 ± 20 nM
- Inhibition at 10µM (%) ([16]; experiment 1): 89.8%
- IC50 ([16]; experiment 1): 194 nM
- Inhibition at 10µM (%) ([16]; experiment 2): 91.8%
- IC50 ([16]; experiment 2): 170 nM
- IC50 ([16]; experiment 3): 242 nM
- Inhibition at 10µM (%) ([17]; average): 97.4%
- IC50 ([17]; average (± SEM where n=3)): 230 ± 30 nM
- Inhibition at 10µM (%) ([17]; experiment 1): 93.4%
- IC50 ([17]; experiment 1): 177 nM
- Inhibition at 10µM (%) ([17]; experiment 2): 101.4%
- IC50 ([17]; experiment 2): 260 nM
- IC50 ([17]; experiment 3): 262 nM
- Inhibition at 10µM (%) ([18]; experiment 1): 53.8%
- Inhibition at 10µM (%) ([18]; experiment 2): 57.6%
- Inhibition at 10µM (%) ([19]; average): 18.1%
- Inhibition at 10µM (%) ([19]; experiment 1): 45.9%
- Inhibition at 10µM (%) ([19]; experiment 2): -9.6%
- Inhibition at 10µM (%) ([20]; average): 29.7%
- Inhibition at 10µM (%) ([20]; experiment 1): 25.4%
- Inhibition at 10µM (%) ([20]; experiment 2): 34.0%
